Reference: the pKa sets of Baltruschat and Czodrowski (2020)

details: acidic group

Compound	pKa
Cc1nccc2c1[nH]c1cc(O)ccc12	9.47
COc1ccc(C(=S)Nc2ccc(C)cc2)cc1	11.8
Cc1ccc(S(=O)(=O)NC(=O)OCc2ccc([N+](=O)[O-])cc2)cc1	3.8
COc1ccc(O)c(/N=N/c2nc(C)cs2)c1	7.98
O=C1CCCC(=O)N1O	7.6
O=C(O)c1cc(Cl)cc([N+](=O)[O-])c1	2.17
O=C(O)CCc1ccoc1	4.44
CN1CC[C@]23c4c5ccc(O)c4O[C@H]2[C@@H](O)C=C[C@H]3[C@H]1[C@H]5O	9.06
O=C(O)Cn1ccc2ccccc21	3.4
C[NH+]1C[C@@H](C(=O)O)C=C2c3cccc4[nH]cc(c34)C[C@@H]21	3.28
Brc1cn[nH]c1	12.7
C/C=C/C=C/C(=O)O	4.53
CC(=O)[n+]1ccccc1	5.32
CC(=O)N(C)O	8.73
CSc1ccc(O)cc1	9.5
Cn1c(=O)c2cn[nH]c2n(C)c1=O	9.26
CC(C)(C)c1ccccc1C(=O)O	3.53
O=C(O)C[C@]1(O)C[C@@H]2CC[C@H]1C2	4.46
N#CC(C#N)Cc1ccc(Cl)cc1	11.5
O=C(O)/C=C/c1c[nH]c[nH+]1	3.5
c1ccc2[nH]cnc2c1	12.6
C[N+](C)(C)c1ccccc1O	7.46
Cc1nnc([N-]S(=O)(=O)c2ccc(O)cc2)s1	8.81
Nc1nccc2c1[nH+]cn2CCOCP(=O)(O)O	1.23
O=S1(=O)Nc2cccc3cccc1c23	6.2
CC(C)C(N)C(N)=O (stereo not given)	8

Compound	pKa
Oc1cccc2nnccc12	7.4
CCOc1ccccc1/C=C\C(=O)O	4.35
O=C(O)CS	3.38
N#CC(CC(=O)O)c1ccccc1 (stereo not given)	3.79
CC(N)C(N)=O (stereo not given)	8.02
O=C(NO)c1ccc([N+](=O)[O-])cc1	8.02
O=C1CC(=O)C(=O)C1	3
CC[NH+](CC)CCOc1ccccc1C(=O)NO	8.42
On1nnc2ccc(Cl)cc21	4.15
CC(C(N)=O)S(=O)(=O)NC(N)=O (stereo not given)	5.21
O=C1CCON1	6.7
Cc1n[nH]c(C(=O)O)c1[N+](=O)[O-]	2.26
Oc1ccc(/N=N/c2ccccc2)cc1	8.44
Nc1cc[nH+]c2c1ncn2CCOCP(=O)([O-])O	7.1
O=C([O-])c1ccccc1-n1nc(O)cc1-c1ccccc1	12.5
N#CC[N+](=O)[O-]	4.86
COc1ccc(O)c(CN(C)C)c1	11.5
C/C(=N/O)c1cc(C)c(C)cc1O	8.2
CO[n+]1ccccc1N	12.4
CC(I)C(=O)O (stereo not given)	3.21
O=c1cccc([O-])cc1O	9.52
CCC1(c2ccccc2)C(=O)NC(=S)NC1=O	6.3
Cc1cc(C#N)cc(C)[n+]1O	-0.61
C[NH+](C)CCc1c[nH]c2ccc(O)cc12	9.73
CC(=O)C(=O)CC(=O)C(C)=O	4.68
Cn1nnnc1CC(=O)O	2.83

Compound	pKa
Cc1cc(Cl)ccc1O	9.6
Sc1ccc(Cl)c(Cl)c1	5.48
Cc1cc(O)nn1-c1ccccc1C(=O)N1CCCCC1	12.4
NS(=O)(=O)c1ccc(F)cc1	9.34
NC(=O)CN(CCN(CC(N)=O)Cc1ccccc1O)Cc1ccccc1O	10.2
[NH3+][C@@H](CCC(=O)O)C(=O)[O-]	4.46
CCc1c(-c2ccccc2)nn(-c2ccccc2)c1O	8
Nc1nc2c(ncn2[C@@H]2C=C[C@H](CO)C2)c(O)[nH+]1	3.15
Cc1cc(O)ccc1Cl	9.4
O=c1ccn([C@@H]2C[C@@H](O)[C@H](CO)O2)c(=O)[nH]1	9.3
COc1cccc(=O)c(O)c1	7.24
Cc1nc(NS(=O)(=O)c2ccc(N)cc2)no1	4.4
O/N=C\c1ccco1	10.8
O=C(O)Cc1cccc2ccccc12	4.24
Nc1ncnc2nc[nH]c12	9.74
O=C(O)CCc1c[nH]c[nH+]1	4
COc1ccc(-c2nnn[nH]2)cc1	4.23
O=[N+]([O-])c1ccc(B(O)O)cc1	7.15
OCc1ccc(O)c(CO)c1	9.77
CC[NH2+]CC[SeH]	5.04
Cc1ncc(C(=O)O)s1	3.26
O=C(c1ccc([N+](=O)[O-])cc1)c1cc[nH]n1	11.7
COc1csc(C(=O)O)c1	3.41
CCc1c(O)ccc(C(C)C)c1C	10.8
O=C(O)c1ccccc1F	3.6
CCNC(=O)/C=C(/[70SH])c1ccccc1	4.73

same assay, conditions: basic group

Compound	pKa
Cc1nccc2c1[nH]c1cc(O)ccc12	7.39
CC[NH+](CC)[C@H]1CCC[C@@H]1N(C)C	5.76
O=C([O-])CNCCc1nnn[n-]1	9.23
CC(C)N1CCCCC1	11
Oc1onc2c1CCN(Cc1ccccc1)CC2	8
Cc1cc(-c2[nH]cc[nH+]2)n[nH]1	1.5
Cc1ccccc1C(=NCCCN(C)C)c1ccccc1C	8.7
COc1ccc(O)c(/N=N/c2nc(C)cs2)c1	0.77
CCCCCC(C)(C)N	10.8
CCN(CC)CCOCCN(CC)CC	10.1
CC(CN)/C(N)=N/O (stereo not given)	9.15
CCN(CC)C(C)O (stereo not given)	10.2
CN(C)CCOCCN(C)C	9.8
CC(C)(C)/C(N)=N/O	5.8
N[C@@H]1C[C@@H]1[NH3+]	4.2
COc1ccc2c3c1O[C@H]1[C@@H](O)C=C[C@H]4[C@@H](C2)N(CCC#N)CC[C@@]341	5.68
CC(C)(C)CNc1ccccc1	4.17
Oc1cccc(C2NCCS2)c1 (stereo not given)	5.2
CC(C)N/C=[NH+]/c1ccc(-c2cn(C)cn2)cc1	5.39
CN1CC[C@]23c4c5ccc(O)c4O[C@H]2[C@@H](O)C=C[C@H]3[C@H]1[C@H]5O	7.13
Clc1cccc(-c2ccccn2)n1	3.7
O=C([O-])/C=C/c1c[nH]cn1	5.85
[O-]c1ncccn1	9.17
Nc1ncc(S(=O)(=O)c2ccccc2)s1	1.79
CC(=O)c1cccc(N)c1	3.61
CN1CCCN(C)Cc2ccccc2OCCOc2ccccc2C1	10.1

Compound	pKa
N[C@@H]1CCC[C@@H]1O	9.7
N[C@H]1CCC[C@H](O)C1	10.1
c1ccc2[nH]cnc2c1	5.51
Cc1ccccc1/C(=N\CCCN(C)C)c1ccccc1Cl	8.95
Cc1[nH+]c2cc(N)ccc2n1C	3.38
CC(C)(C)N	10.7
CCC(C)(C)NC(C)(C)CC	11.6
Nc1nccc([O-])n1	9.42
Cc1cc(C)[n+](C)c([S-])n1	3.15
CC1(C)CC(=O)C=C(N2CCCC2)C1	3.15
Nc1nccc2c1[nH+]cn2CCOCP(=O)(O)O	0.15
N[C@@H]1CCCC[C@@H]1O	9.72
C[C@@H]1CC[C@H]2CC[C@H](C)N21	11.5
[NH3+]C(Cc1cnc[nH]1)C(=O)NCC(=O)[O-] (stereo not given)	6.67
[O-]c1c(Cl)cc(Cl)c(Cl)c1CN1CCOCC1	8.83
N#Cc1cccc(N)c1	2.83
C/C(N)=N/N(C)C	10
CCNc1nc(N)nc(N)n1	5.23
C#CCN	8.19
NCC(=O)Nc1ccccc1	8.12
CN(C)c1cccnc1	6.67
Oc1cccc2nnccc12	1.92
OCCNCCO	9.04
Cc1cc2ncn([C@H]3OC[C@H](O)[C@H](O)[C@@H]3O)c2cc1C	4.7
CCOCCN(CCOCC)c1ccccc1	4.1
N=C(c1ccccc1)c1ccccc1O	5

Compound	pKa
COc1ccc2c(c1)C([P+](c1ccccc1)(c1ccccc1)c1ccccc1)c1ccccc1-2 (stereo not given)	9.09
COc1ccc(-c2cnc(-c3ccccc3)o2)cc1	1.05
CCOC(=O)CCCCCN	10.4
CNC(C)Cc1ccc(OC)c(OC)c1 (stereo not given)	9.8
CC(N)CCc1ccc(O)cc1 (stereo not given)	9.14
CN(C)c1ccncn1	6.35
NC12CCC(C1)C2	9.3
CN1CCN(C(c2ccccc2)c2ccccc2)CC1	8.05
Nc1ccnc2cc(Cl)ccc12	8.22
COCCN	9.67
Nc1ccc2ncccc2c1	5.63
CCCCNCc1ccc(C)cc1	9.98
O=C1CCC[C@H]2[C@H]3C[C@@H](CN12)[C@@H]1CCCCN1C3	9.4
Cc1ccccc1NC(=O)CN	7.81
C[NH2+]Cc1ccccn1	2.91
COc1ccc(C(N)=O)cc1	-1.6
Cc1c(Cn2ccnc2)sc2ccc(C(=O)[O-])cc12	6.58
c1cnc2ncncc2n1	4.13
N=C(N)Nc1nc(N)nc(NC(N)=[NH2+])n1	7
CCCC(=N)OCC	7.08
COc1ccc(O)c(CN(C)C)c1	8.7
C[NH+]1CCn2c(nc3ccccc32)C1	2.55
c1ccc(-c2cccnc2)nc1	4.42
[NH3+]CCc1c[nH]cn1	6.08
Nc1ccc2c(c1)Cc1cccc(O)c1-2	4.73
c1csc(C2CCCN2)c1 (stereo not given)	9.35

Compound	pKa
Nc1cccc2[nH+]cccc12	0.97
C[C@H]1CCC2CC[C@H](C)N21	11.7
CCN(CC)CCS(=O)(=O)c1ccc(OC)c(OC)c1OC	7.41
CCN(CC)CCCC(C)=O	10.1
Cc1cc(CO)c(C)c(C)n1	7.3
NC(=O)CN(CCN(CC(N)=O)Cc1ccccc1O)Cc1ccccc1O	6.54
CC(=O)SCCN(C)C	8.27
Cc1cc(-c2cc(C)n[nH]2)[nH]n1	2.8
c1ccc(-c2cnc(-c3ccccc3)o2)cc1	0.84
CCc1cc(-c2ccccc2)nnc1NCC[NH+]1CCOCC1	4.37
Cc1ccc(Cl)cc1/C(=N/CCCN(C)C)c1ccccc1	8.8
OCC1CN2CCC1CC2 (stereo not given)	10.6
Cc1c(C(C)C)c(=O)n(-c2ccccc2)n1C	2.4
c1ccc2c(c1)C1CCN2C1 (stereo not given)	7.1
Nc1ncnc2nc[nH]c12	4.2
CNCC(C)C[NH2+]C	8.29
CC1CCN1 (stereo not given)	11
Oc1ccc(Cl)c2cccnc12	3.68
C[C@H]1CCN2CCC[C@@H]12	11.4
C#CCN(CC#C)CC#C	3.04
NCC[n+]1ccc2ccccc2c1	6.85
C=C(C)[C@@H]1CN[C@H](C(=O)[O-])[C@@H]1CC(=O)[O-]	10.2
C=C(C)C(=O)NCCN(C)C	8.54
O=C([O-])CCc1c[nH]cn1	7.55
